Data taken from patent US8507411B2, “Neoglycorandomization and digitoxin analogs” (priority 2004, dated 2013).

Tests used:
A549 = assay: High-throughput calcein AM cytotoxicity assay, A549; format: cell-based, human; settings: A549 cells; read-out: IC50
Excerpt: (§1) Standard errors are depicted with error bars.

Hep3B = assay: High-throughput calcein AM cytotoxicity assay, Hep3B; format: cell-based, human; settings: Hep 3B cells; read-out: IC50
Excerpt: as §1

NCI-H460 = assay: High-throughput calcein AM cytotoxicity assay, NCI-H460; format: cell-based, human; settings: NCI-H460 cells; read-out: IC50
Excerpt: as §1

MCF7 = assay: High-throughput calcein AM cytotoxicity assay, MCF7; format: cell-based, human; settings: MCF7 cells; read-out: IC50
Excerpt: as §1

SK-OV-3 = assay: cells; format: cell-based, human; settings: SK-OV-3 cells; read-out: IC50
Summary of the method: (§2)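 Viability read-out: esterase conversion of calcein AM to fluorescent calcein in live cells (ex 485, em 535 nm), 30 min at 37 °C after 72 h compound exposure. Human lines grown in RPMI 1640/10% FBS; NmuMG in DMEM/10% FBS with 10 μg/ml insulin. IC50s fit with variable Hill slope.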

NCI/ADR-RES = assay: cells; format: cell-based, human; settings: NCI/ADR-RES cells; read-out: IC50
Summary of the method: as §2

SF-268 = assay: cells; format: cell-based, human; settings: SF-268 cells; read-out: IC50
Summary of the method: as §2

HCT-116 = assay: High-throughput calcein AM cytotoxicity assay, HCT-116; format: cell-based, human; settings: HCT-116 cells; read-out: IC50
Excerpt: as §1

NmuMG = assay: cells; format: cell-based, mouse; settings: NmuMG cells (mouse mammary normal epithelial control line); read-out: IC50
Summary of the method: as §2

Du145 = assay: High-throughput calcein AM cytotoxicity assay, Du145; format: cell-based, human; settings: Du145 cells; read-out: IC50
Excerpt: as §1

[1] = Hydrolytic stability of the neoglycosidic linkage; format: physicochemical; settings: 3 mM in 1:1 DMSO/buffer, one month
Protocol: FIG. 4 is a graphic representation of the results of studies on the hydrolytic stability of neoglycoside 4α. The chemical stability of the neoglycosidic linkage was examined by monitoring the hydrolytic degradation of neoglycoside 4α in a 3 mM solution of 1:1 DMSO/buffer. Three buffers were used, 50 mM acetate buffer (pH 5), 50 mM phosphate buffer (pH 7), and 50 mM Tris buffer (pH 9). Neoglycoside degradation was monitored by reverse phase HPLC on an Agilent Zorbax Eclipse XDB-C8 column (4.6×150 mm) with a flow rate of 0.8 mL min^−1 and a linear gradient of 49% CH3OH/H2O to 89% CH3OH/H2O over 20 min. At t=0, neoglycoside 4α in 500 μL DMSO was added to 500 μL buffer, and the resulting solution was vortexed for 40 sec, then immediately injected onto the HPLC. Peak areas at 220 nm were used to estimate the neoglycoside/aglycon ratio, which is reported as “percent neoglycoside remaining” [Aneoglycoside/(Aneoglycoside+Aaglycon)] for each of the three buffer systems.
Hydrolytic Stability of 4α. The chemical stability of the neoglycosidic linkage was examined by monitoring the hydrolytic degradation of neoglycoside 4α in a 3 mM solution of 1:1 DMSO/buffer. Three buffers were used, 50 mM acetate buffer (pH 5), 50 mM phosphate buffer (pH 7), and 50 mM Tris buffer (pH 9). Neoglycoside degradation was monitored by reverse phase HPLC on an Agilent Zorbax Eclipse XDB-C8 column (4.6×150 mm) with a flow rate of 0.8 mL min^−1 and a linear gradient of 49% CH3OH/H2O to 89% CH3OH/H2O over 20 min. At t=0, neoglycoside 4α in 500 μL DMSO was added to 500 μL buffer, and the resulting solution was vortexed for 40 sec, then immediately injected onto the HPLC. Peak areas at 220 nm were used to estimate the neoglycoside/aglycon ratio, which is reported as “percent neoglycoside remaining” [Aneoglycoside/(Aneoglycoside+Aaglycon)] for each of the three buffer systems (see FIG. 4).
The chemical stability of the neoglycosidic linkage was examined by monitoring the hydrolytic degradation of neoglycoside 4α in a 3 mM solution of 1:1 DMSO/buffer using buffers at three different pHs.

## CON([C@@H]1CC[C@@]2(C)[C@H](CC[C@@H]3[C@@H]2CC[C@]2(C)[C@@H](C4=CC(=O)OC4)CC[C@]32O)C1)[C@@H]1O[C@H](CO)[C@@H](O)[C@H](O)[C@H]1O [4α, D-glucoside]
A549
  IC50: > 25 µM
Hep3B
  IC50: > 25 µM
NCI-H460
  IC50: > 25 µM
MCF7
  IC50: > 25 µM
SK-OV-3
  IC50: > 25 µM
NCI/ADR-RES
  IC50: > 25 µM
SF-268
  IC50: > 25 µM
HCT-116
  IC50: > 25 µM
NmuMG
  IC50: > 25 µM
Du145
  IC50: > 25 µM
[1]; acidic conditions (pH 5)
  hydrolytic stability: slowly hydrolyzed
[1]; neutral or basic conditions (pH 7, pH 9)
  hydrolytic stability: completely stable
